The subject of data set [1] is Staph. aureus 10649. Put plainly: Chronic abscess model, in vivo efficacy vs. Staph. aureus 10649. Further details: species or system Staph. aureus (infected mouse). The note with it: mice pretreated with milk. From the text: Thus, the improved oral activity of the compounds of formula I can be attributed to improved gastrointestinal absorption of these compounds. […] In this model, sustained blood levels of antibiotic will prevent reinfection by the organism at the abscess site after the last treatment.

In data set [2] the test system is Staph. aureus 10649. Put plainly: Acute mouse protection, in vivo efficacy vs. Staph. aureus 10649 (100-1000 LD50 s). The note with it: for ED50 Oral (milk) / ED50 Subcutaneous / ED50: Acute Mouse Protection. Further details: species or system Staph. aureus (infected mouse). From the text:
In Vivo Efficacy vs. Staph. aureus 10649
Model Number Subcutaneous
Thus, the improved oral activity of the compounds of formula I can be attributed to improved gastrointestinal absorption of these compounds.

For data set [3] the following is noted: in man; cited from earlier work.
The conditions of data set [4]: pH 4; cited from earlier work.
The conditions of data set [5]: in vivo; cited from earlier work.
A further data set is described as follows: Acid stability. Format: physicochemical. The note with it: compared with erythromycin A.
The nature of data set [6]: Serum blood levels after oral administration to beagle dogs (FIG. 1). Format: in vivo, beagle dog. The settings on record: 10.0 mg/kg, solution of a buffered salt in water, three beagle dogs, 24 hours. How it is done: The serum half-lives of the new compounds have been measured in both rats and dogs (t0.5 =2-3 hours in rats, 8-12 hours in dogs). […] Similarly, erythromycin A was administered to other dogs at an equal dosage. Serum concentrations of the administered drug were determined hourly over the 24 hours following administration. The results are depicted in FIG. 1.

Data set [7] has as its system gastrointestinal tissues (stomach, duodenum, jejunum and ileum). The data set is described as follows: Gastrointestinal stimulating activity in a dog model, overall. The note with it: 2 mg/kg intravenously.
Protocol: Contractions in the gut were recorded with surgically implanted strain gauges.
Where [8] appears, read: oral, mice pretreated with milk.
Where [9] appears, read: Staphylococcus aureus, 10649, po, oral, mice pretreated with milk, read-out: ED50 Oral (milk).
The mark [10] stands for this setting: Staphylococcus aureus, 10649, sc, subcutaneous, read-out: ED50 Subcutaneous.

Where a name gives a salt, the structure may show the parent alone.

Usually ED50 stands for the dose that gives a 50% effect, or the effect in half of the subjects.

For “4"-N,N-dimethylglycylerythromycin A 11,12-carbonate 6,9-hemiacetal monohydrochloride salt [Example 7]”, the “ED50 Oral (milk)” value in the data set with Staph. aureus 10649 [1] came out at 36 mg/kg.
Consider “4"-N-CBZ-sarcosyl erythryomycin A 11,12-carbonate-6,9-hemiacetal [Example 6]”, for which the “ED50 Oral (milk)” value in the data set with Staph. aureus 10649 [2] (setting [8]) was determined as 34 mg/kg. In the data set with Staph. aureus 10649 [2] (subcutaneous), the “ED50 Subcutaneous” value amounted to 35 mg/kg.
Turning to `CC[C@H]1OC(=O)[C@H](C)[C@@H](O[C@H]2C[C@@](C)(OC)[C@@H](O)[C@H](C)O2)[C@H](C)[C@@H](O[C@@H]2O[C@H](C)C[C@H](N(C)C)[C@H]2O)[C@](C)(O)C[C@@H](C)C(=O)[C@H](C)[C@@H](O)[C@]1(C)O` [Compound 1, erythromycin A], in the data set with Staph. aureus 10649 [2] (setting [8]), the “ED50 Oral (milk)” value is listed as 52 mg/kg. Besides, the “ED50 Subcutaneous” value in the data set with Staph. aureus 10649 [2] (subcutaneous) amounted to 9 mg/kg. Also, the ED50 in the data set with Staph. aureus 10649 [2] (setting [9]) worked out at 81 mg/kg; with Staph. aureus 10649 [2] (setting [10]), 6 mg/kg; in the data set on Staph. aureus 10649 [1] (Staphylococcus aureus, 10649, oral), 200 mg/kg. Moreover, the serum half-life in data set [3] was 2 to 3 h. The “antibacterial activity in an environment of high acidity” value in data set [4] was “rapidly loses its antibacterial activity”. The oral absorption entry in data set [5] is “unreliably absorbed when administered orally”.
On to `CC[C@H]1OC(=O)[C@H](C)[C@@H](O[C@H]2C[C@@](C)(OC)[C@@H](O)[C@H](C)O2)[C@H](C)[C@@H](O[C@@H]2O[C@H](C)C[C@H](N(C)C)[C@H]2O)[C@@]2(C)C[C@@H](C)C(O)(O2)[C@H](C)[C@H]2OC(=O)O[C@@]21C` [Compound 2, erythromycin A 11,12-carbonate-6,9-hemiacetal], for which the ED50 with Staph. aureus 10649 [2] (setting [9]) was determined as 69 mg/kg; with Staph. aureus 10649 [2] (setting [10]), 15 mg/kg. Further, the “subcutaneous versus oral activity” value in the data set with Staph. aureus 10649 [2] (Table I, milk-pretreated mice) was “more active subcutaneously than orally”. In the data set “Acid stability”, the “acid stability relative to erythromycin A” value is recorded as “significantly more acid-stable than erythromycin A”.
With `CC[C@H]1OC(=O)[C@H](C)[C@@H](O[C@H]2C[C@@](C)(OC)[C@@H](OC(C)=O)[C@H](C)O2)[C@H](C)[C@@H](O[C@@H]2O[C@H](C)C[C@H](N(C)C)[C@H]2O)[C@](C)(O)C[C@@H](C)C(=O)[C@H](C)[C@@H](O)[C@]1(C)O` [Compound 3, 4"-acetylerythromycin A], the figures for the ED50 in the data set with Staph. aureus 10649 [2] (setting [9]) and in the data set on Staph. aureus 10649 [2] (setting [10]) were 100 mg/kg and 30 mg/kg, respectively.
In the same order, the values of `CC[C@H]1OC(=O)[C@H](C)[C@@H](O[C@H]2C[C@@](C)(OC)[C@@H](OC(C)=O)[C@H](C)O2)[C@H](C)[C@@H](O[C@@H]2O[C@H](C)C[C@H](N(C)C)[C@H]2O)[C@@]2(C)C[C@@H](C)C(O)(O2)[C@H](C)[C@H]2OC(=O)O[C@@]21C` [Compound 4, 4"-acetylerythromycin A 11,12-carbonate-6,9-hemiketal HCl salt] are 40 mg/kg and 27 mg/kg.
Consider `CC[C@H]1OC(=O)[C@H](C)[C@@H](O[C@H]2C[C@@](C)(OC)[C@@H](OC(C)=O)[C@H](C)O2)[C@H](C)[C@@H](O[C@@H]2O[C@H](C)C[C@H](N(C)C)[C@H]2O)[C@@]2(C)C[C@@H](C)C(O)(O2)[C@H](C)[C@H]2OC(=O)O[C@@]21C` [Compound 7, 4"-acetylerythromycin A 11,12-carbonate-6,9-hemiacetal free base], for which, in data set [6], the “half life relative to erythromycin A” value was “markedly longer half life” and the “peak blood level relative to erythromycin A” value was “higher peak blood level”.
With `CC[C@H]1OC(=O)[C@H](C)[C@@H](O[C@H]2C[C@@](C)(OC)[C@@H](O)[C@H](C)O2)[C@H](C)[C@@H](O[C@@H]2O[C@H](C)C[C@H](N(C)C)[C@H]2O)[C@](C)(O)C[C@@H](C)C(=O)[C@H](C)[C@@H](O)[C@]1(C)O` [erythromycin A lactobionate], the “stimulation of the stomach, duodenum, jejunum and ileum” value in data set [7] was “pronounced stimulation”.
